Test results taken from patent US20240101540A1, “TARGETED PROTEIN DEGRADATION OF PARP14 FOR USE IN THERAPY” (Ribon Therapeutics, Inc., priority 2022, published 2024).

What follows are compounds tested against T1, catalytic domain of human PARP14 (residues 1611 to 1801) with NanoLuc tag (Homo sapiens, UniProt Q460N5) (assay: NanoLuc assay for the degradation of PARP14 (NanoLuc-tagged PARP14 overexpressed in HEK-293T cells, 2 hours)). Conditions: Assay A (Example A): NanoLuc-tagged PARP14 degradation in HEK-293T cells, read-out: DC50.
T1 construct: expressed in transfected cells; host or cells: HEK-293T cells (ATCC), pcDNA3.1(-) vector
T1 sequence (Q460N5 1611-1801): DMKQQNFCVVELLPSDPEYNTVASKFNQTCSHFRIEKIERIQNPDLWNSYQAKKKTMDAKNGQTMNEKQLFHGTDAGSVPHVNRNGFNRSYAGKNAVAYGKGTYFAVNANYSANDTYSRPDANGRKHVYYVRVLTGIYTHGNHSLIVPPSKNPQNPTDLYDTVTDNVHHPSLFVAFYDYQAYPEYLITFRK
Assay type: cell-based
Protocol: The insert also contained a NanoLuc tag on the N terminus of the PARP14 protein.
Degradation of PARP14 protein was assessed using measurement of the NanoLuc tag as proxy for the PARP14 protein. […] Plasmid DNA was diluted in empty vector DNA then added to 1.163 mL of phenol red free OptiMEM (Thermo Fisher). Plasmid DNA concentrations used in each assay described in Table 1. The plasmid DNA was mixed with 78.5 μL of Fugene HD (Promega) and allowed to incubate 5 minutes.
The transfection was incubated for 24 hrs at 37 degrees in an incubator supplemented with 5% CO2. The cells were then trypsinized and brought up in phenol red free OptiMEM media. […] 40 nL of a dose response curve diluted in DMSO of each test compound was added to the cell plate using a Mosquito (TTP Labtech) and the plate was incubated at 37° C. for 2 hours. Assay plate was brought to room temperature then 20 μL per well of NanoGlo (Promega) was added to the plate. Luminescence was measured on an Envision (Perkin Elmer).
The average DMSO was calculated from 32 wells containing 0.1% DMSO only in columns 12 and 24 of the assay plate. The % of DMSO values were calculated as described below: […]
The % of DMSO values were plotted as a function of compound concentration and the following 4-parameter fit was applied to derive the DC50 values:
where top, bottom, and Hill Coefficient are allowed to float. Y is the % of DMSO and X is the compound concentration
DC50 data for the Example compounds is provided below in Table 2 (“+” is <0.1 μM; “++” is ≥0.1 μM and <1 μM; and “+++” is ≥1 μM).

DC50 [nM]	SMILES
< 100	O=C1CCC(N2C(=O)c3ccc(N4CCC(CN5CCC(COc6cc(F)c7c(=O)[nH]c(CSC8CCOCC8)nc7c6)CC5)CC4)cc3C2=O)C(=O)N1 (stereo not drawn) [Example 34, 2-(2,6-dioxopiperidin-3-yl)-5-(4-((4-(((5-fluoro-4-oxo-2-(((tetrahydro-2H-pyran-4-yl)thio)methyl)-3,4-dihydroquinazolin-7-yl)oxy)methyl)piperidin-1-yl)methyl)piperidin-1-yl)isoindoline-1,3-dione]
< 100	O=C1CCC(N2C(=O)c3cccc(N4CCC(CN5CCC(COc6cc(F)c7c(=O)[nH]c(CSC8CCOCC8)nc7c6)CC5)CC4)c3C2=O)C(=O)N1 (stereo not drawn) [Example 35, 2-(2,6-dioxopiperidin-3-yl)-4-(4-((4-(((5-fluoro-4-oxo-2-(((tetrahydro-2H-pyran-4-yl)thio)methyl)-3,4-dihydroquinazolin-7-yl)oxy)methyl)piperidin-1-yl)methyl)piperidin-1-yl)isoindoline-1,3-dione]
< 100	O=C1CCC(N2C(=O)c3ccc(N4CC(CN5CCC(COc6cc(F)c7c(=O)[nH]c(CSC8CCOCC8)nc7c6)CC5)C4)cc3C2=O)C(=O)N1 (stereo not drawn) [Example 36, 2-(2,6-dioxopiperidin-3-yl)-5-(3-((4-(((5-fluoro-4-oxo-2-(((tetrahydro-2H-pyran-4-yl)thio)methyl)-3,4-dihydroquinazolin-7-yl)oxy)methyl)piperidin-1-yl)methyl)azetidin-1-yl)isoindoline-1,3-dione]
< 100	O=C1CCC(N2C(=O)c3cccc(N4CC(N5CCC(COc6cc(F)c7c(=O)[nH]c(CSC8CCOCC8)nc7c6)CC5)C4)c3C2=O)C(=O)N1 (stereo not drawn) [Example 40, 2-(2,6-dioxopiperidin-3-yl)-4-(3-(4-(((5-fluoro-4-oxo-2-(((tetrahydro-2H-pyran-4-yl)thio)methyl)-3,4-dihydroquinazolin-7-yl)oxy)methyl)piperidin-1-yl)azetidin-1-yl)isoindoline-1,3-dione]
< 100	O=C1CCC(N2C(=O)c3ccc(N4CC(N5CCC(COc6cc(F)c7c(=O)[nH]c(CSC8CCOCC8)nc7c6)CC5)C4)cc3C2=O)C(=O)N1 (stereo not drawn) [Example 41, 2-(2,6-dioxopiperidin-3-yl)-5-(3-(4-(((5-fluoro-4-oxo-2-(((tetrahydro-2H-pyran-4-yl)thio)methyl)-3,4-dihydroquinazolin-7-yl)oxy)methyl)piperidin-1-yl)azetidin-1-yl)isoindoline-1,3-dione]
< 100	O=C1CCC(N2C(=O)c3ccc(N4CC(N5CCC(COc6cc(F)c7c(=O)[nH]c(CSC8CCOCC8)nc7c6)C(F)(F)C5)C4)cc3C2=O)C(=O)N1 (stereo not drawn) [Example 42, 5-(3-(3,3-difluoro-4-(((5-fluoro-4-oxo-2-(((tetrahydro-2H-pyran-4-yl)thio)methyl)-3,4-dihydroquinazolin-7-yl)oxy)methyl)piperidin-1-yl)azetidin-1-yl)-2-(2,6-dioxopiperidin-3-yl)isoindoline-1,3-dione]
< 100	O=C1CCC(N2C(=O)c3ccc(/C=C/CN4CCC(COc5cc(F)c6c(=O)[nH]c(CSC7CCOCC7)nc6c5)CC4)cc3C2=O)C(=O)N1 (stereo not drawn) [Example 43, (E)-2-(2,6-dioxopiperidin-3-yl)-5-(3-(4-(((5-fluoro-4-oxo-2-(((tetrahydro-2H-pyran-4-yl)thio)methyl)-3,4-dihydroquinazolin-7-yl)oxy)methyl)piperidin-1-yl)prop-1-en-1-yl)isoindoline-1,3-dione]
< 100	CN1CCC(SCc2nc3cc(OCC4CCN(c5ccc6c(c5)C(=O)N(C5CCC(=O)NC5=O)C6=O)CC4)cc(F)c3c(=O)[nH]2)CC1 (stereo not drawn) [Example 44, 2-(2,6-dioxopiperidin-3-yl)-5-(4-(((5-fluoro-2-(((1-methylpiperidin-4-yl)thio)methyl)-4-oxo-3,4-dihydroquinazolin-7-yl)oxy)methyl)piperidin-1-yl)isoindoline-1,3-dione]

The remaining lines, values behind:

SMILES	DC50 [nM]
O=C1CCC(N2Cc3c(C#CCN4CCC(COc5cc(F)c6c(=O)[nH]c(CSC7CCOCC7)nc6c5)CC4)cccc3C2=O)C(=O)N1 (stereo not drawn) [Example 30, 3-(4-(3-(4-(((5-fluoro-4-oxo-2-(((tetrahydro-2H-pyran-4-yl)thio)methyl)-3,4-dihydroquinazolin-7-yl)oxy)methyl)piperidin-1-yl)prop-1-yn-1-yl)-1-oxoisoindolin-2-yl)piperidine-2,6-dione]	< 100
Cn1c(=O)n(C2CCC(=O)NC2=O)c2cccc(C#CCN3CCC(COc4cc(F)c5c(=O)[nH]c(CSC6CCOCC6)nc5c4)CC3)c21 (stereo not drawn) [Example 31, 3-(4-(3-(4-(((5-fluoro-4-oxo-2-(((tetrahydro-2H-pyran-4-yl)thio)methyl)-3,4-dihydroquinazolin-7-yl)oxy)methyl)piperidin-1-yl)prop-1-yn-1-yl)-3-methyl-2-oxo-2,3-dihydro-1H-benzo[d]imidazol-1-yl)piperidine-2,6-dione]	< 100
O=C1CCN(c2ccc(C#CCN3CCC(COc4cc(F)c5c(=O)[nH]c(CSC6CCOCC6)nc5c4)CC3)cc2)C(=O)N1 [Example 32, 1-(4-(3-(4-(((5-fluoro-4-oxo-2-(((tetrahydro-2H-pyran-4-yl)thio)methyl)-3,4-dihydroquinazolin-7-yl)oxy)methyl)piperidin-1-yl)prop-1-yn-1-yl)phenyl)dihydropyrimidine-2,4(1H,3H)-dione]	< 100
O=C1CCN(c2cccc(C#CCN3CCC(COc4cc(F)c5c(=O)[nH]c(CSC6CCOCC6)nc5c4)CC3)c2)C(=O)N1 [Example 33, 1-(3-(3-(4-(((5-fluoro-4-oxo-2-(((tetrahydro-2H-pyran-4-yl)thio)methyl)-3,4-dihydroquinazolin-7-yl)oxy)methyl)piperidin-1-yl)prop-1-yn-1-yl)phenyl)dihydropyrimidine-2,4(1H,3H)-dione]	< 100
O=C1CCC(N2C(=O)c3cccc(N4CC(CN5CCC(COc6cc(F)c7c(=O)[nH]c(CSC8CCOCC8)nc7c6)CC5)C4)c3C2=O)C(=O)N1 (stereo not drawn) [Example 37, 2-(2,6-dioxopiperidin-3-yl)-4-(3-((4-(((5-fluoro-4-oxo-2-(((tetrahydro-2H-pyran-4-yl)thio)methyl)-3,4-dihydroquinazolin-7-yl)oxy)methyl)piperidin-1-yl)methyl)azetidin-1-yl)isoindoline-1,3-dione]	< 100
O=C1CCC(N2Cc3c(cccc3N3CC(CN4CCC(COc5cc(F)c6c(=O)[nH]c(CSC7CCOCC7)nc6c5)CC4)C3)C2=O)C(=O)N1 (stereo not drawn) [Example 38, 3-(4-(3-((4-(((5-fluoro-4-oxo-2-(((tetrahydro-2H-pyran-4-yl)thio)methyl)-3,4-dihydroquinazolin-7-yl)oxy)methyl)piperidin-1-yl)methyl)azetidin-1-yl)-1-oxoisoindolin-2-yl)piperidine-2,6-dione]	< 100
O=C1CCC(N2C(=O)c3cccc(N4CCN(CC5CCN(C(=O)CN6CCC(COc7cc(F)c8c(=O)[nH]c(CCC9CCOCC9)nc8c7)CC6)CC5)CC4)c3C2=O)C(=O)N1 (stereo not drawn) [Example 39, 2-(2,6-dioxopiperidin-3-yl)-4-(4-((1-(2-(4-(((5-fluoro-4-oxo-2-(2-(tetrahydro-2H-pyran-4-yl)ethyl)-3,4-dihydroquinazolin-7-yl)oxy)methyl)piperidin-1-yl)acetyl)piperidin-4-yl)methyl)piperazin-1-yl)isoindoline-1,3-dione]	< 100
O=C1CCC(c2ccc(NCC#CCN3CCC(COc4cc(F)c5c(=O)[nH]c(CSC6CCOCC6)nc5c4)CC3)cc2)C(=O)N1 (stereo not drawn) [Example 45, 3-(4-((4-(4-(((5-fluoro-4-oxo-2-(((tetrahydro-2H-pyran-4-yl)thio)methyl)-3,4-dihydroquinazolin-7-yl)oxy)methyl)piperidin-1-yl)but-2-yn-1-yl)amino)phenyl)piperidine-2,6-dione]	< 100
O=C1CCC(Nc2ccc(OCC3CC(N4CCC(COc5cc(F)c6c(=O)[nH]c(CSC7CCOCC7)nc6c5)CC4)C3)cc2)C(=O)N1 (stereo not drawn) [Example 46, 3-((4-((3-(4-(((5-fluoro-4-oxo-2-(((tetrahydro-2H-pyran-4-yl)thio)methyl)-3,4-dihydroquinazolin-7-yl)oxy)methyl)piperidin-1-yl)cyclobutyl)methoxy)phenyl)amino)piperidine-2,6-dione]	< 100
O=C1CCC(Nc2ccc(OC3CC(CN4CCC(COc5cc(F)c6c(=O)[nH]c(CSC7CCOCC7)nc6c5)CC4)C3)cc2)C(=O)N1 (stereo not drawn) [Example 47, 3-({4-[3-({4-[({5-fluoro-2-[(oxan-4-ylsulfanyl)methyl]-4-oxo-3H-quinazolin-7-yl}oxy)methyl]piperidin-1-yl}methyl)cyclobutoxy]phenyl}amino)piperidine-2,6-dione]	< 100
